Legend:
various tumor cells = test: IR-induced apoptosis of tumor cells; assay type: cell-based
BALB/c mice = test: Protection of mice from IR-induced lethality; assay type: in vivo; conditions: 50 mg/kg iv 10 min prior to 6.5 or 8.5 Gy total body IR; 30-day observation
Protocol: BALB/c mice were exposed to 6.5 or 8.5 Gy total body IR 10 minutes after they received a single dose (50 mg/kg) of iv injection of D609 or vehicle (saline) through the tail vein. The death of these mice was recorded during a 30-day observation period after IR.
Moreover, when D609 (50 mg/kg, iv) was administered to mice 10 min prior to total body

[1] = Cyclic voltammetry, reducing power (E1/2) at physiological pH; assay type: physicochemical; conditions: 2 mM in PBS (pH 7.4)
Protocol: D609 was dissolved in PBS (pH 7.4) at 2 mM concentration, and E1/2 was measured using a cyclic voltammetry apparatus (Model CV-2, from BAS, West Lafayette, 1N).

[2] = system: Porcine liver esterase (PLE); test: Esterase-catalyzed hydrolysis of D609 prodrugs; assay type: in vitro ADME
Protocol: FIG. 18A, FIG. 18B, FIG. 18C: Esterase-catalyzed hydrolysis of D609 prodrugs. Prodrugs (300 μM in 15% DMSO/PBS, pH 7.4), 1 (FIG. 18A), 2 (FIG. 18B) and 3 (FIG. 18C), were incubated at 37° C. in the presence of 0.1 unit/ml PLE. […] The data are presented as the mean±SEM of three independent assays.
To determine the hydrolytic property of D609 prodrugs 1, 2, and 3 (300 μM in 15% DMSO/PBS, pH7.4), these prodrugs were incubated with 0.1 unit/ml PLE at 37° C. After various times during incubation, the rate of hydrolysis of these D609 prodrugs was monitored by HPLC analysis. […] The concentration of D609 (μM) was calculated based on a linear D609-DTNB standard curve. The pseudo-first-order plots for the hydrolysis of these prodrugs were constructed from the logarithm of remaining ester versus time (FIG. 18). The end points of the reaction (150 min) were defined as when the hydrolysis of these prodrugs was over 99% complete and the release of D609 reached plateau. The pseudo-first-order rate constant (Kobs) and T1/2 (=0.693/Kobs) were calculated based on the slope of the linear portion of the curve for each of these prodrugs and are presented in Table 1 (Gilmer et al., 2002).

[3] = 300 μM, 0.1 unit/ml PLE, 37° C., pH 7.4

Row | SMILES | protection of tumor cells from IR-induced apoptosis (various tumor cells) | protection from IR-induced lethality (BALB/c mice) | E1/2 [1] | T1/2 [2, 3] | kobs [2, 3] | % D609 (molar recovery of D609) ([2]; complete hydrolysis by esterase)
1 | S=C([S-])OC1CC2CC1C1CCCC21.[K+] (stereo not drawn) [Prodrug D609, Tricyclodecan-9-yl-xanthogenate] | failed to protect them from IR-induced apoptosis | protected the mice from IR-induced lethality | 350 mV | – | – | –
2 | CCCC(=O)OCSC(=S)OC1CC2CC1C1CCCC21 (stereo not drawn) [Prodrug 2, S-methyleneoxybutyryl D609] | – | – | – | 10.61 min | 0.06532 min⁻¹ | 93%
